Data reported in article PMC10566733 (PLOS ONE, 2023).
“And” between values parts separate entries of the source, which are not always exact repeats. Identical values can stand only once.

Experiments:
[1] = endothelial monolayers absent; FITC-TAT 10 μM; Fig 1A
Procedure: (§1) Briefly, the cells were seeded onto 24-well culture inserts (Falcon Permeable Support for 24-well plate; cat. #353104), and one-half of the medium was replaced every other day, and the cells were cultured for 5 days prior to the performance of a permeability assay. On the day of the assay, the culture medium was replaced with serum-free DMEM with FITC-linked peptides or bovine serum albumin (Sigma).

[2] = test system: monolayer of bEnd.3 mouse brain endothelial cells; test: Permeability across a monolayer of brain endothelial cells (in vitro BBB model); format: in vitro ADME; set-up: Diffusion of FITC-TAT across bEnd.3 monolayer / Diffusion of FITC-linked peptide across bEnd.3 monolayer / Diffusion of FITC-TAT across bEnd.3 monolayer, FITC-TAT + TAT / Diffusion of FITC-TAT across bEnd.3 monolayer, FITC-TAT + TATK/R>A: unit not given here; details: for Diffusion of FITC-TAT across bEnd.3 monolayer, FITC-TAT + TAT: FITC-TAT 10 μM coupled with non-FITC TAT 10 μM; for Diffusion of FITC-TAT across bEnd.3 monolayer, FITC-TAT + TAT / Diffusion of FITC-TAT across bEnd.3 monolayer, FITC-TAT + TATK/R>A / Diffusion of FITC-TAT across bEnd.3 monolayer / Diffusion of FITC-linked peptide across bEnd.3 monolayer: fluorescence spectrophotometry; for Diffusion of FITC-TAT across bEnd.3 monolayer, FITC-TAT + TATK/R>A: FITC-TAT 10 μM coupled with non-FITC TAT^K/R>A 10 μM; for Diffusion of FITC-TAT across bEnd.3 monolayer: bEnd.3 monolayer on Transwell, serum-free DMEM
[3] = test system: monolayer of bEnd.3 brain endothelial cells; details: 1000 μM TAT; Fig 5A
Procedure: as §1
Medium collected from cell culture in vitro (12 μl medium per culture) and tissue samples harvested from mice in vivo were denatured by boiling in lysis buffer, separated by electrophoresis, transferred onto PVDF membranes, and imaged after incubation in primary and secondary antibodies as described previously for in vitro [55] and in vivo [57] experiments. The following primary antibodies were used: anti-albumin (1:2000; GeneTex, cat. #102419, for the in vitro experiments; 1:5000; Abcam, cat. #ab106582, for the in vivo experiments) and anti-ɑ-tubulin (1:5000; GeneTex, cat. #GTX628802) antibodies, and the following secondary antibodies were used: anti-rabbit (1:5000; GeneTex, cat. #GTX213110-01), anti-mouse (1:1000; GeneTex, cat. #GTX213111-01), and anti-chicken (1:1000; Abcam, cat. #ab97135) antibodies.

[4] = diffusion time 0.1 h, individual cultures n = 3
[5] = diffusion time 12 h, individual cultures n = 3
[6] = diffusion time 24 h, individual cultures n = 3

N=C(N)NCCC[C@H](NC(=O)[C@H](CCCNC(=N)N)NC(=O)[C@H](CCCNC(=N)N)NC(=O)[C@H](CCC(N)=O)NC(=O)[C@H](CCCNC(=N)N)NC(=O)[C@H](CCCNC(=N)N)NC(=O)[C@H](CCCCN)NC(=O)[C@H](CCCCN)NC(=O)[C@H](CCCNC(=N)N)NC(=O)CNC(=O)[C@H](Cc1ccc(O)cc1)NC(=S)Nc1ccc2c(c1)C(=O)OC21c2ccc(O)cc2Oc2cc(O)ccc21)C(=O)O [FITC-TAT]
Effect of lowering the temperature to 4°C on diffusion of FITC-TAT across Transwell inserts [1]: had no effect | Diffusion of FITC-TAT from upper to lower chamber of Transwell inserts ([2]; 37°C, regardless of whether monolayers of brain endothelial cells were cultured on the membranes, Fig 1A and 1B): readily diffused across to the lower chamber | Diffusion of FITC-TAT across bEnd.3 monolayer, FITC-TAT + TAT [2, 4]: 1.844 and 1.839 and 1.804 | Diffusion of FITC-TAT across bEnd.3 monolayer, FITC-TAT + TAT [2, 5]: 42.0052 and 42.275 and 41.3436 | Diffusion of FITC-TAT across bEnd.3 monolayer, FITC-TAT + TAT [2, 6]: 90.1666 and 89.6029 and 94.8903 | Diffusion of FITC-TAT across bEnd.3 monolayer, FITC-TAT + TATK/R>A [2, 4]: 1.736 and 1.755 and 1.705 | Diffusion of FITC-TAT across bEnd.3 monolayer, FITC-TAT + TATK/R>A [2, 5]: 41.331 and 40.0366 and 39.1388 | Diffusion of FITC-TAT across bEnd.3 monolayer, FITC-TAT + TATK/R>A [2, 6]: 85.9302 and 85.5824 and 85.3453 | Effect of the presence of non-FITC TAT or non-FITC TAT^K/R>A on permeability of the monolayer to FITC-TAT ([2]; FITC-TAT 10 μM with 10 μM competitor, Fig 3D): only marginally decreased | Effect of NaN3 and 2-DG treatment regimens on ability of FITC-TAT to cross the monolayer ([2]; FITC-TAT 10 μM, NaN3 10 mM and 2-DG 6 mM, 1 h pre-treatment or 24 h, Fig 2B): neither treatment regimens had an effect | Diffusion of FITC-TAT across bEnd.3 monolayer ([2]; FITC-TAT 10 μM, 4°C, diffusion time 0 h, individual cultures n = 10): 1.386 and 10.0745 and 1.495 and 1.465 and 7.9907 and 7.9 and 8.057 and 7.849 and 10.0907 and 10.1377 | Diffusion of FITC-TAT across bEnd.3 monolayer ([2]; FITC-TAT 10 μM, 4°C, diffusion time 0.5 h, individual cultures n = 10): 2.727 and 10.2694 and 1.946 and 2.6148 and 12.2754 and 11.4859 and 13.8266 and 14.9326 and 10.2588 and 10.1802 | Diffusion of FITC-TAT across bEnd.3 monolayer ([2]; FITC-TAT 10 μM, 4°C, diffusion time 1 h, individual cultures n = 10): 3.318 and 12.0592 and 3.998 and 4.153 and 14.099 and 14.1024 and 12.2279 and 14.4626 and 12.8546 and 12.5004 | Diffusion of FITC-TAT across bEnd.3 monolayer ([2]; FITC-TAT 10 μM, 4°C, diffusion time 2 h, individual cultures n = 10): 4.184 and 12.4226 and 4.5396 and 5.958 and 21.4454 and 17.4004 and 16.7345 and 14.5981 and 18.4195 and 13.6876 | Diffusion of FITC-TAT across bEnd.3 monolayer ([2]; FITC-TAT 10 μM, 4°C, diffusion time 4 h, individual cultures n = 10): 12.2948 and 22.4089 and 5.603 and 11.4776 and 26.9335 and 21.9034 and 18.3373 and 22.0326 and 23.9812 and 20.9146 | Diffusion of FITC-TAT across bEnd.3 monolayer ([2]; FITC-TAT 10 μM, 4°C, diffusion time 8 h, individual cultures n = 10): 23.6561 and 36.4429 and 7.1971 and 15.1917 and 28.8919 and 24.9217 and 33.0378 and 37.6449 and 33.9313 and 51.5353 | Diffusion of FITC-TAT across bEnd.3 monolayer ([2]; FITC-TAT 10 μM, 4°C, diffusion time 12 h, individual cultures n = 10): 44.603 and 38.3865 and 18.3523 and 26.8326 and 40.1964 and 39.8496 and 31.2218 and 52.2936 and 30.2304 and 54.311 | Diffusion of FITC-TAT across bEnd.3 monolayer ([2]; FITC-TAT 10 μM, 37°C, diffusion time 0 h, individual cultures n = 8): 2.7408 and 2.991 and 8.292 and 8.146 and 7.613 and 9.624 and 9.686 and 9.768 | Diffusion of FITC-TAT across bEnd.3 monolayer ([2]; FITC-TAT 10 μM, 37°C, diffusion time 0.5 h, individual cultures n = 8): 5.546 and 5.194 and 16.5195 and 13.9086 and 14.4213 and 13.3482 and 14.7024 and 14.0517 | Diffusion of FITC-TAT across bEnd.3 monolayer ([2]; FITC-TAT 10 μM, 37°C, diffusion time 1 h, individual cultures n = 8): 8.062 and 7.828 and 16.9226 and 16.4917 and 15.6732 and 12.2867 and 19.4469 and 13.4865 | Diffusion of FITC-TAT across bEnd.3 monolayer ([2]; FITC-TAT 10 μM, 37°C, diffusion time 2 h, individual cultures n = 8): 13.5165 and 10.5024 and 28.7248 and 24.7001 and 24.2495 and 24.3505 | FITC-TAT movement across the endothelial monolayer with cytochalasin D ([2]; cells incubated with 100 μM cytochalasin D, FITC-TAT 10 μM, Fig 4D): increased rather than inhibited | Effect of lowering the temperature to 4°C on diffusion of FITC-TAT across Transwell inserts ([2]; endothelial monolayers present, FITC-TAT 10 μM, Fig 1B): substantially decreased | Diffusion of FITC-linked peptide across bEnd.3 monolayer ([2]; peptide 1 μM (Fig 3A), diffusion time 0.1 h, individual cultures n = 4): 16.1034 and 15.6278 and 16.2621 and 16.9227 | Diffusion of FITC-linked peptide across bEnd.3 monolayer ([2]; peptide 1 μM (Fig 3A), diffusion time 4 h, individual cultures n = 4): 33.068 and 35.9601 and 44.67 and 33.2662 | Diffusion of FITC-linked peptide across bEnd.3 monolayer ([2]; peptide 1 μM (Fig 3A), diffusion time 12 h, individual cultures n = 4): 59.5062 and 62.0797 and 69.9514 and 60.3513 | Diffusion of FITC-linked peptide across bEnd.3 monolayer ([2]; peptide 1 μM (Fig 3A), diffusion time 24 h, individual cultures n = 4): 98.4329 and 97.1083 and 108.448 and 96.0109 | Diffusion of FITC-linked peptide across bEnd.3 monolayer ([2]; peptide 3 μM (Fig 3B), diffusion time 0.1 h, individual cultures n = 4): 5.536 and 5.776 and 5.613 and 5.958 | Diffusion of FITC-linked peptide across bEnd.3 monolayer ([2]; peptide 3 μM (Fig 3B), diffusion time 4 h, individual cultures n = 4): 30.6967 and 26.8471 and 24.0637 and 21.038 | Diffusion of FITC-linked peptide across bEnd.3 monolayer ([2]; peptide 3 μM (Fig 3B), diffusion time 12 h, individual cultures n = 4): 69.4896 and 55.4891 and 51.5686 and 64.8124 | Diffusion of FITC-linked peptide across bEnd.3 monolayer ([2]; peptide 3 μM (Fig 3B), diffusion time 24 h, individual cultures n = 4): 112.045 and 93.6163 and 91.1166 and 103.222 | Diffusion of FITC-linked peptide across bEnd.3 monolayer ([2]; peptide 10 μM (Fig 3C), diffusion time 0.1 h, individual cultures n = 4): 1.488 and 1.536 and 1.502 and 1.69 | Diffusion of FITC-linked peptide across bEnd.3 monolayer ([2]; peptide 10 μM (Fig 3C), diffusion time 4 h, individual cultures n = 4): 20.2675 and 19.471 and 18.2115 and 22.8397 | Diffusion of FITC-linked peptide across bEnd.3 monolayer ([2]; peptide 10 μM (Fig 3C), diffusion time 12 h, individual cultures n = 4): 55.3743 and 53.9149 and 46.6389 and 56.9448 | Diffusion of FITC-linked peptide across bEnd.3 monolayer ([2]; peptide 10 μM (Fig 3C), diffusion time 24 h, individual cultures n = 4): 95.2978 and 101.031 and 98.8203 and 104.851 | Diffusion of FITC-linked peptide across bEnd.3 monolayer ([2]; peptide 10 μM alone (Fig 3D), diffusion time 0.1 h, individual cultures n = 3): 1.749 and 1.772 and 1.79 | Diffusion of FITC-linked peptide across bEnd.3 monolayer ([2]; peptide 10 μM alone (Fig 3D), diffusion time 12 h, individual cultures n = 3): 43.9695 and 46.4386 and 47.7244 | Diffusion of FITC-linked peptide across bEnd.3 monolayer ([2]; peptide 10 μM alone (Fig 3D), diffusion time 24 h, individual cultures n = 3): 96.1412 and 98.5343 and 105.324

N=C(N)NCCC[C@H](NC(=O)[C@H](CCCNC(=N)N)NC(=O)[C@H](CCCNC(=N)N)NC(=O)[C@H](CCC(N)=O)NC(=O)[C@H](CCCNC(=N)N)NC(=O)[C@H](CCCNC(=N)N)NC(=O)[C@H](CCCCN)NC(=O)[C@H](CCCCN)NC(=O)[C@H](CCCNC(=N)N)NC(=O)CNC(=O)[C@@H](N)Cc1ccc(O)cc1)C(=O)O [TAT]
Effect of TAT on the amount of albumin that crossed the monolayer [3]: significantly increased
